From US9481677B2, “Biaryl ether sulfonamides and their use as therapeutic agents” (XENON PHARMACEUTICALS INC., priority 2011, dated 2016)

target: Nav1.7 (Homo sapiens (Human), UniProt Q15858); assay: Patch voltage clamp electrophysiology, block of inactivated-state Nav1.7 in HEK-293 cells; assay type: cell-based; conditions: affinity for the inactivated state; HEK-293 cells with β1 subunit; held at -60 mV; read-out: NaV1.7 (IC50 class)
Method: Patch voltage clamp electrophysiology allows for the direct measurement and quantification of block of voltage-gated sodium channels (Nav's), and allows the determination of the time- and voltage-dependence of block which has been interpreted as differential binding to the resting, open, and inactivated states of the sodium channel (Hille, B., Journal of General Physiology (1977), 69: 497-515).
The following patch voltage clamp electrophysiology studies were performed on representative compounds of the invention using human embryonic kidney cells (HEK), permanently transfected with an expression vector containing the full-length cDNA coding for the desired human sodium channel α-subunit, grown in culture media containing 10% FBS, 1% PSG, and 0.5 mg/mL G418 at 37° C. with 5% CO2. […] Nav1.7 and Nav1.5 cDNAs (NM_002977 and AC137587; SCN5A, respectively) were stably expressed in HEK-293 cells. The β1 subunit was coexpressed only in the Nav1.7 cell line.
Sodium currents were measured using the patch clamp technique in the whole-cell configuration using either a PatchXpress automated voltage clamp or manually using an Axopatch 200B (Axon Instruments) or Model 2400 (A-M systems) amplifier. […] The pipette was filled with a solution comprised of: 5 mM NaCl, 10 mM CsCl, 120 mM CsF, 0.1 mM CaCl2, 2 mM MgCl2, 10 mM HEPES, 10 mM EGTA; and adjusted to pH 7.2 with CsOH. The external solution had the following composition: 140 mM NaCl, 5 mM KCl, 2 mM CaCl2, 1 mM MgCl2, 10 mM HEPES; and adjusted to pH 7.4 with NaOH. In some studies, the external sodium was reduced by equimolar replacement with choline. Osmolarity in the CsF internal and NaCl external solutions was adjusted to 300 mOsm/kg and 310 mOsm/kg with glucose, respectively. All recordings were performed at ambient temperature in a bath chamber with a volume of 150 μL. Control sodium currents were measured in 0.5% DMSO. Controls and representative compounds of the invention were applied to the recording chamber through a 4-pinch or 8-pinch valve bath perfusion system manufactured by ALA Scientific Instruments.
Currents were recorded at 40 kHz sampling frequency, filtered at […], and stored using a Digidata-1322A analogue/digital interface with the pClamp software (Axon Instruments). Series resistance compensation was applied (60-80%). […] All statistics in this study are given as mean±SD.
The membrane potential was maintained at a voltage where inactivation of the channel is complete (which was −60 mV for both Nav1.7 and Nav1.5). The voltage is then stepped back to a very negative (Vhold=−150 mV) voltage for 20 ms and then a test pulse is applied to quantify the compound block. […] The percent decrease in sodium current following wash-on of compound was taken as the percent block of sodium channels.
The Example numbers provided in Table 1 and Table 2 correspond to the Examples herein.

Chain of Nav1.7 (Q15858 other isoform, or with tags, fused parts or gaps): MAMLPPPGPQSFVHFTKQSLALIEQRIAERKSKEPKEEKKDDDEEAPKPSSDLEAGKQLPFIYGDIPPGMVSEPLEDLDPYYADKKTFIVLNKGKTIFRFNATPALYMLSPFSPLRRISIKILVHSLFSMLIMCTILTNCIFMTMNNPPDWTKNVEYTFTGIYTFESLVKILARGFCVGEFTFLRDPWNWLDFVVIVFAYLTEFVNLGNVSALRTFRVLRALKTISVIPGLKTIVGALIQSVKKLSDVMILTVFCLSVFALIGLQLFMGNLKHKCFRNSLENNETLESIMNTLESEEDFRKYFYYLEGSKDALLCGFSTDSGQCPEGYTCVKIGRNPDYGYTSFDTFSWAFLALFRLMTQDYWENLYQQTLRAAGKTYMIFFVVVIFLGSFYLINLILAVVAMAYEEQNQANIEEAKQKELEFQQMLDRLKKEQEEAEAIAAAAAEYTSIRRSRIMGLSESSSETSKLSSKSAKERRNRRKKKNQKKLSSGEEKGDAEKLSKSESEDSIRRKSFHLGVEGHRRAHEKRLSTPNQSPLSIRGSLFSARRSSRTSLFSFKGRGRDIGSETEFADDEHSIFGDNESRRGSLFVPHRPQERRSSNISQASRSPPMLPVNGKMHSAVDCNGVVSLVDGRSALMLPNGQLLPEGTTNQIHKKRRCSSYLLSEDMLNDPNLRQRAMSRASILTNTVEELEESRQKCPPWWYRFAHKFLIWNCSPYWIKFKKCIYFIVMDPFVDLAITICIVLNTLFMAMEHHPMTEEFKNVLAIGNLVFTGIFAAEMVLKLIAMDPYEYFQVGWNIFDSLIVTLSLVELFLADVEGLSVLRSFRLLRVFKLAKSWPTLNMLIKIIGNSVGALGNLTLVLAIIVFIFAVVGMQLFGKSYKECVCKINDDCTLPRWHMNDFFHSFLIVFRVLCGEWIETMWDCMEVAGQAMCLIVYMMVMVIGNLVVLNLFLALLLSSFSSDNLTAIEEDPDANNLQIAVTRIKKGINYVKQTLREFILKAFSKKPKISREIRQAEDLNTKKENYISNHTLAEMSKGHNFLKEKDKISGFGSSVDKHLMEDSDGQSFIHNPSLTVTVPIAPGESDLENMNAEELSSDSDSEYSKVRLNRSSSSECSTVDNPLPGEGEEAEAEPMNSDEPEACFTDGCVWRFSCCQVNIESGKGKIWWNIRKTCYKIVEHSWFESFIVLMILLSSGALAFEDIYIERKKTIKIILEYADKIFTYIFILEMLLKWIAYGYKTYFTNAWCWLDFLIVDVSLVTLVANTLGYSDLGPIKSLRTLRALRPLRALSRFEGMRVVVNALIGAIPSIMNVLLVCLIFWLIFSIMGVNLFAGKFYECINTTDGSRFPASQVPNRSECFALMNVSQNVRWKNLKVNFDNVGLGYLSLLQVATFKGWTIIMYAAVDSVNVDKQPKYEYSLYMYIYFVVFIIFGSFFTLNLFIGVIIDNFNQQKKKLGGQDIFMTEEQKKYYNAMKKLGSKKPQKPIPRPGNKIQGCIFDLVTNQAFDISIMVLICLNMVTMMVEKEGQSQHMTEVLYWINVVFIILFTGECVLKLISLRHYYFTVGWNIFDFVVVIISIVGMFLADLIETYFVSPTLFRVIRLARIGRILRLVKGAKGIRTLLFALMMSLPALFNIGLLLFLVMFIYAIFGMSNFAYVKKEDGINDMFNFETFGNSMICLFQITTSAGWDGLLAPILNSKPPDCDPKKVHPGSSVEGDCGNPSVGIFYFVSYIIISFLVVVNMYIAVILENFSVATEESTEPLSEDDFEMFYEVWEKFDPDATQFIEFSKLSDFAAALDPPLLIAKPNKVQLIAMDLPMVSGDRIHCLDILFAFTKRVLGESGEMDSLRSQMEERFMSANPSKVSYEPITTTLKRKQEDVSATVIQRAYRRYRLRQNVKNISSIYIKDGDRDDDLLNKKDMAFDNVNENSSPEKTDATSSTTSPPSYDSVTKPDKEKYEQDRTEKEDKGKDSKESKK
Chain of Nav1.7 (Q07699 19-218 partner): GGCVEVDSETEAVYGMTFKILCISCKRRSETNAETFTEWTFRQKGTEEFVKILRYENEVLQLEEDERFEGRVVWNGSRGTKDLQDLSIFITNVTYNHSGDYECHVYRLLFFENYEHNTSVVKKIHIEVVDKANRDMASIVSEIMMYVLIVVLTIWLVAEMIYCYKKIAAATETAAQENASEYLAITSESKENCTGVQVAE

Row | Structure (SMILES) | IC50 [nM]
1 | O=C1Cc2cc(-c3cc(Cl)ccc3Oc3cc(F)c(S(=O)(=O)Nc4ncns4)cc3F)ccc2N1 [Example 77, 4-(4-chloro-2-(2-oxoindolin-5-yl)phenoxy)-2,5-difluoro-N-(1,2,4-thiadiazol-5-yl)benzenesulfonamide] | ≤ 100
2 | O=c1[nH]c2cc(-c3cc(Cl)ccc3Oc3ccc(S(=O)(=O)Nc4ncccn4)cc3F)ccc2o1 [Example 79, 4-(4-chloro-2-(2-oxo-2,3-dihydrobenzo[d]oxazol-5-yl)phenoxy)-3-fluoro-N-(pyrimidin-2-yl)benzenesulfonamide] | ≤ 100
3 | Nc1noc2ccc(-c3cc(F)ccc3Oc3cc(F)c(S(=O)(=O)Nc4ncns4)cc3F)cc12 [Example 80, 4-(2-(3-aminobenzo[d]isoxazol-5-yl)-4-fluorophenoxy)-2,5-difluoro-N-(1,2,4-thiadiazol-5-yl)benzenesulfonamide] | ≤ 100
4 | Cc1ccc(Oc2cc(F)c(S(=O)(=O)Nc3ncns3)cc2F)c(-c2ccc3oc(=O)[nH]c3c2)c1 [Example 82, 2,5-difluoro-4-(4-methyl-2-(2-oxo-2,3-dihydrobenzo[d]oxazol-5-yl)phenoxy)-N-(1,2,4-thiadiazol-5-yl)benzenesulfonamide] | ≤ 100
5 | CN(C)c1noc2ccc(-c3cc(Cl)ccc3Oc3cc(F)c(S(=O)(=O)Nc4ncns4)cc3F)cc12 [Example 98, 4-(4-chloro-2-(3-(dimethylamino)benzo[d]isoxazol-5-yl)phenoxy)-2,5-difluoro-N-(1,2,4-thiadiazol-5-yl)benzenesulfonamide] | ≤ 100
